Active and inactive are the calls of the source. No cut-off for these calls is given here. Where only a bound is given, the exact number is not on record here.

One test deals with Adenosine receptor A2a (Homo sapiens, UniProt P29274). The test can be described thus: Antagonist activity at human adenosine A2A receptor expressed in CHO-K1 cells preincubated for 15 mins before NECA addition measured after 5.5 to 6 hrs by beta-galactosidase reporter gene assay. It counts as functional, cell-based.
In test [1] the test system is Mus musculus. The test is described as follows: Reversal of haloperidol-induced catalepsy in balb/c mouse at 10 mg/kg, po compound administered 30 mins post challenge. It counts as functional.
The target in a further test is T1, Adenosine receptor A1 (Homo sapiens, UniProt P30542).
T1 sequence (P30542 whole entry): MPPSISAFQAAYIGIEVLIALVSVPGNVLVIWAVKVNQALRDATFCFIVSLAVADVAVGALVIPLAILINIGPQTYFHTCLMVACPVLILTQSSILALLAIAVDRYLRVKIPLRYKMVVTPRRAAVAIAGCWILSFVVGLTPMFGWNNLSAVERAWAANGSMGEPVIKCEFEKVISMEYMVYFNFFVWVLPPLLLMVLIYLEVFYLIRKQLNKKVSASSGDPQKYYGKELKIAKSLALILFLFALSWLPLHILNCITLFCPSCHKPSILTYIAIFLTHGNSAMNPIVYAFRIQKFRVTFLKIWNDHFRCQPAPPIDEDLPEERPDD
The test can be described thus: Antagonist activity at human adenosine A1 receptor expressed in CHO-K1 cells preincubated for 15 mins before r-PIA addition measured after 5.5 to 6 hrs by beta-galactosidase reporter gene assay. It counts as cell-based.

The test system of test [2] is Mus musculus. The test can be described thus: Reversal of haloperidol-induced catalepsy in po dosed balb/c mouse compound administered 30 mins post challenge. It counts as functional. The settings on record: 0.5 h.

Adenosine receptor A2a, sequence (P29274 whole entry): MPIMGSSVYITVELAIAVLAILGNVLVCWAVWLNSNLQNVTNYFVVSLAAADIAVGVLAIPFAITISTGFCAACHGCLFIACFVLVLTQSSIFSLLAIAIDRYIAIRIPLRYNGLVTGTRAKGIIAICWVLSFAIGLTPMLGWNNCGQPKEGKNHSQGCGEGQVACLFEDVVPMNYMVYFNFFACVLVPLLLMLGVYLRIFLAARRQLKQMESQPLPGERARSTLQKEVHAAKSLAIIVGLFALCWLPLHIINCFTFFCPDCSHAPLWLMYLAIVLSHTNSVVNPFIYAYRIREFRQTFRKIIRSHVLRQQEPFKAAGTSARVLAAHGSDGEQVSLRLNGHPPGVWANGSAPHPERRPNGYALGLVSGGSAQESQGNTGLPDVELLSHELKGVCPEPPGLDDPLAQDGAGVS

On Adenosine receptor A2a, `Nc1nc(-c2ccc(Cl)o2)nc2sc(CN3CCC(F)CC3)cc12` gave a Ki of 36.7 nM.

Regarding `Nc1nc(-c2ccco2)nc2sc(CN3CCCC3)cc12`, the result with Mus musculus [1] was inactive.

Consider `C[C@@H]1CCC[C@H](C)N1Cc1cc2c(N)nc(-c3ccco3)nc2s1`, for which the Ki at Adenosine receptor A2a came out at 5.3 nM.

On to `Nc1nc(-c2ccc(Br)o2)nc2sc(CN3CCOCC3)cc12`, for which the figures for the Ki on Adenosine receptor A1 and on Adenosine receptor A2a were 725 nM and 30 nM, respectively.

As to `Nc1nc(-c2ccc(Br)o2)nc2sc(CN3CCCC3)cc12`, the result in the test on Mus musculus [1] was inactive. The values for the Ki at Adenosine receptor A1 and at Adenosine receptor A2a were 710 nM and 22.5 nM, respectively.

Consider `CC(C)c1ccc(-c2nc(N)c3cc(CN4[C@H](C)CCC[C@@H]4C)sc3n2)o1`, for which the result with Mus musculus [1] was inactive. Moreover, the Ki at Adenosine receptor A1 turned out to be 140 nM; at Adenosine receptor A2a, 17 nM.

On to `Nc1nc(-c2ccc(Cl)o2)nc2sc(CN3CC=CC3)cc12`, for which the outcome with Mus musculus [1] was inactive. The same molecule returned a Ki at Adenosine receptor A2a of 10 nM.

In the case of `Nc1nc(-c2nccs2)nc2sc(CN3CCOCC3)cc12`, at Adenosine receptor A2a, the Ki is 250 nM.

As for `Nc1nc(-c2ccc(Cl)o2)nc2sc(CN3CCCC(F)(F)C3)cc12`, the Ki is 188 nM on Adenosine receptor A1 and 9.1 nM at Adenosine receptor A2a.

As for `Nc1nc(-c2ccc(Cl)o2)nc2sc(CN3CCC(F)(F)C3)cc12`, the Ki is 245 nM at Adenosine receptor A1 and 15.9 nM at Adenosine receptor A2a.

Molecule `Nc1nc(-c2cccc(F)c2)nc2sc(CN3CCOCC3)cc12` displayed a Ki at Adenosine receptor A2a of 110 nM.

As to `Nc1nc(-c2ccco2)nc2sc(CN3CCC(F)C3)cc12` (stereo unspecified), the outcome with Mus musculus [1] was inactive. For the same molecule, affinity at Adenosine receptor A2a was put at a Ki of 10.3 nM.

With `C[C@@H]1CCC[C@H](C)N1Cc1cc2c(N)nc(-c3ccc(C4CC4)o3)nc2s1`, the affinity at Adenosine receptor A2a corresponds to a Ki of 110 nM.

Turning to `Cc1ccc(-c2nc(N)c3cc(CN4CCCC4)sc3n2)o1`, in the test on Mus musculus [1], the outcome was inactive.

In the case of `Cc1ccc(-c2nc(N)c3cc(CN4CCCCC4)sc3n2)o1`, in the test with Mus musculus [1], the result was inactive. Further, on Adenosine receptor A2a, the affinity, expressed as Ki, was 28.8 nM.

As for `Nc1nc(-c2ccco2)nc2sc(CN3CC=CCC3)cc12`, the ED50 in the test on Mus musculus [2] was less than 3 mg/kg. Further, the Ki on Adenosine receptor A1 came out at 150 nM; on Adenosine receptor A2a, 6.5 nM.

Molecule `CN(C)Cc1cc2c(N)nc(-c3ccco3)nc2s1` registered a Ki at Adenosine receptor A2a of 140 nM.

As to `CN(C)C(=O)c1cccc(-c2nc(N)c3cc(CN4CCC(F)CC4)sc3n2)c1`, the Ki on Adenosine receptor A1 is more than 10000 nM; at Adenosine receptor A2a, 2250 nM.

`Nc1nc(-c2cccs2)nc2sc(CN3CCOCC3)cc12`: the values for the Ki on Adenosine receptor A1 and on Adenosine receptor A2a were 1020 nM and 125 nM, respectively.

Consider `N#Cc1cccc(-c2nc(N)c3cc(CN4CCSCC4)sc3n2)c1`, for which the Ki at Adenosine receptor A1 stood at 980 nM; at Adenosine receptor A2a, 50.9 nM.

`Nc1nc(-c2cccc(C(F)(F)F)c2)nc2sc(CN3CCC(F)CC3)cc12`: the Ki on Adenosine receptor A1 is 3030 nM; on Adenosine receptor A2a it was more than 10000 nM.

`Nc1nc(-c2cccc(Cl)c2)nc2sc(CN3CCOCC3)cc12` had a Ki on Adenosine receptor A2a of 120 nM.

The molecule `Nc1nc(-c2ccco2)nc2sc(CN3CCC(F)(F)CC3)cc12` returned a Ki at Adenosine receptor A2a of 49.6 nM.

As for `C[C@@H]1CCC[C@H](C)N1Cc1cc2c(N)nc(-c3ccc(Br)o3)nc2s1`, at Adenosine receptor A1, the inhibitory constant (Ki) amounted to 40.2 nM.

Molecule `Cc1csc(-c2nc(N)c3cc(CN4CCOCC4)sc3n2)n1` had a Ki on Adenosine receptor A1 of more than 930 nM.

Molecule `N#Cc1ccc(-c2nc(N)c3cc(CN4CC=CCC4)sc3n2)cc1` registered a Ki on Adenosine receptor A2a of 180 nM.

`Nc1nc(-c2ccco2)nc2sc(CN3CCC(F)CC3)cc12`: the ED50 with Mus musculus [2] is less than 1 mg/kg. On Adenosine receptor A2a, the affinity, expressed as Ki, was 19.7 nM.

Regarding `CS(=O)(=O)c1cccc(-c2nc(N)c3cc(CN4CCC(F)CC4)sc3n2)c1`, the Ki at Adenosine receptor A1 and on Adenosine receptor A2a was more than 10000 nM throughout.

For `Nc1nc(-c2cccs2)nc2sc(CN3CCCC3)cc12`, the Ki at Adenosine receptor A1 was more than 10000 nM; at Adenosine receptor A2a, 110 nM.

With `Nc1nc(-c2ccccc2C(F)(F)F)nc2sc(CN3CCC(F)CC3)cc12`, the Ki at Adenosine receptor A1 and at Adenosine receptor A2a was more than 10000 nM in each case.

Molecule `CCc1ccc(-c2nc(N)c3cc(CN4CCOCC4)sc3n2)o1` registered a Ki on Adenosine receptor A1 of more than 610 nM.

Consider `Nc1nc(-c2ccco2)nc2sc(CN3CC=CC3)cc12`, for which the ED50 in the test on Mus musculus [2] is less than 0.1 mg/kg. The Ki at Adenosine receptor A1 is 290 nM; at Adenosine receptor A2a it was 7.2 nM.

At Adenosine receptor A1, `Nc1nc(-c2cccc(C(F)(F)F)c2)nc2sc(CN3CC=CC3)cc12` yielded a Ki of 2960 nM.

With `Nc1nc(-c2ccc(C(F)(F)F)cc2)nc2sc(CN3CCC(F)CC3)cc12`, the Ki was 3560 nM at Adenosine receptor A1 and more than 10000 nM on Adenosine receptor A2a.

On to `Nc1nc(-c2ccc(Cl)o2)nc2sc(CN3CCOCC3)cc12`, for which the results for the Ki on Adenosine receptor A1 and at Adenosine receptor A2a were 640 nM and 45.4 nM, respectively.

With `N#Cc1cccc(-c2nc(N)c3cc(CN4CCCC(F)(F)C4)sc3n2)c1`, the ED50 with Mus musculus [2] is less than 1 mg/kg. In addition, the Ki on Adenosine receptor A1 stood at 840 nM; on Adenosine receptor A2a, 39 nM.

For `CC(C)c1ccc(-c2nc(N)c3cc(CN4CCOCC4)sc3n2)o1`, the Ki on Adenosine receptor A1 is more than 600 nM; on Adenosine receptor A2a, more than 1360 nM.

As to `C[C@@H]1CCC[C@H](C)N1Cc1cc2c(N)nc(-c3ccc(C(F)F)o3)nc2s1`, the result in the test with Mus musculus [1] was inactive. The affinity at Adenosine receptor A2a corresponds to a Ki of 28.6 nM.

Turning to `CCc1ccc(-c2nc(N)c3cc(CN4[C@H](C)CCC[C@@H]4C)sc3n2)o1`, the values for the Ki at Adenosine receptor A1 and on Adenosine receptor A2a were 190 nM and 25.2 nM, respectively.

Regarding `N#Cc1cccc(-c2nc(N)c3cc(CN4CCCC4)sc3n2)c1`, the Ki on Adenosine receptor A2a is more than 10000 nM.

For the molecule `Nc1nc(-c2ccco2)nc2sc(CN3CCC(F)(F)C3)cc12`, the ED50 in the test on Mus musculus [2] was determined as 10 mg/kg. Besides, affinity on Adenosine receptor A2a was put at a Ki of 8.7 nM.

Take `Nc1nc(-c2ccco2)nc2sc(CN3CCSCC3)cc12`: the ED50 in the test with Mus musculus [2] turned out to be 3.2 mg/kg. The Ki came out at 369 nM on Adenosine receptor A1 and 9.2 nM on Adenosine receptor A2a.

Turning to `N#Cc1cccc(-c2nc(N)c3cc(CN4CCC(F)CC4)sc3n2)c1`, the ED50 in the test on Mus musculus [2] was less than 1 mg/kg. In addition, the Ki on Adenosine receptor A2a was 54.4 nM.

Take `Nc1nc(-c2ncco2)nc2sc(CN3CC=CC3)cc12`: the Ki at Adenosine receptor A1 amounted to 3890 nM; on Adenosine receptor A2a it was 240 nM.

In the case of `Nc1nc(-c2cccc([N+](=O)[O-])c2)nc2sc(CN3CCC(F)CC3)cc12`, the figures for the Ki on Adenosine receptor A1 and at Adenosine receptor A2a were more than 10000 nM and 3760 nM, respectively.

`N#Cc1ccc(-c2nc(N)c3cc(CN4CCC(F)CC4)sc3n2)cc1` displayed a Ki at Adenosine receptor A2a of 390 nM.

Turning to `Nc1nc(-c2ccc(C(F)F)o2)nc2sc(CN3CCOCC3)cc12`, the outcome in the test on Mus musculus [1] was inactive.

Regarding `Nc1nc(-c2ccco2)nc2sc(CN3CCCC(F)(F)C3)cc12`, the ED50 with Mus musculus [2] was less than 1 mg/kg. On Adenosine receptor A1, this molecule displayed an inhibitory constant (Ki) of 290 nM.

As for `N#Cc1cccc(-c2nc(N)c3cc(CN4CCOCC4)sc3n2)c1`, the ED50 in the test on Mus musculus [2] is less than 1 mg/kg.

Molecule `Nc1nc(-c2ccc(C(F)F)o2)nc2sc(CN3CCCC(F)(F)C3)cc12` displayed a Ki on Adenosine receptor A2a of 43.2 nM.

With `Nc1nc(-c2ncco2)nc2sc(CN3CC=CCC3)cc12`, the Ki worked out at 2960 nM on Adenosine receptor A1 and 240 nM at Adenosine receptor A2a.

In turn, `Nc1nc(-c2ccco2)nc2sc(CNC3CCCCC3)cc12` yielded a Ki at Adenosine receptor A2a of 170 nM.

For the molecule `Nc1nc(-c2ccc(Cl)o2)nc2sc(CN3CC=CCC3)cc12`, the Ki on Adenosine receptor A1 turned out to be 190 nM; on Adenosine receptor A2a, 11 nM.

Regarding `Nc1nc(-c2ccc(Cl)o2)nc2sc(CN3CCCC3)cc12`, the outcome in the test on Mus musculus [1] was inactive.

In the case of `Nc1nc(-c2ccco2)nc2sc(CN3CCOCC3)cc12`, the ED50 in the test on Mus musculus [2] was 1.3 mg/kg. The Ki at Adenosine receptor A1 came to 1680 nM; on Adenosine receptor A2a, 29 nM.

Take `Nc1nc(-c2ccco2)nc2sc(CNC3CC3)cc12`: the result with Mus musculus [1] was inactive.

`Nc1nc(-c2ccc(C3CC3)o2)nc2sc(CN3CCOCC3)cc12` returned a Ki on Adenosine receptor A1 of more than 1100 nM.

Regarding `Nc1nc(-c2ccccc2)nc2sc(CN3CCOCC3)cc12`, the results for the inhibition constant Ki on Adenosine receptor A1 and on Adenosine receptor A2a were more than 5000 nM and 995 nM, respectively.

In the case of `Nc1nc(-c2ccco2)nc2sc(CN3CCCCCC3)cc12`, the Ki was found to be 1170 nM on Adenosine receptor A1 and 27.6 nM on Adenosine receptor A2a.

The values above are taken from ChEMBL document CHEMBL3217453, “Aminomethyl substituted thieno[2,3-d]pyrimidines as adenosine A2A receptor antagonists” (Medchemcomm, 2011).
